# Experimental data published in patent US11917959B2, “Multi-ear system to enhance monocot plant yield” (Monsanto Technology LLC, priority 2015, dated 2024).
# Legend:
# Type in all cases: in vivo
# [1] = system: eleven corn inbred germplasm; assay: Chemistry treatment of eleven corn inbred germplasm at V3 or V8 (Example 12); details: for Avg Kernels from Main Stem / Avg Total Kernels Per Plant: auto-self
# Text: Seeds for eleven corn inbred germplasm was planted in six-packs and grown in greenhouses under standard conditions as outlined in Example 1. At thirteen days after germination the seedlings for the eleven different germplasm (20 plants per germplasm) were transplanted into standard pots. […]
# [2] = system: haploid maize populations; assay: Doubling efficiency of four germplasms after co-dominant ear induction (Example 3); design: DE50: unit not given beside the values; details: 60 mL 2.5% PBZ at V7 or V8
# Method: Two F1 hybrid-derived (one male and one female) haploid populations (referred to herein as H1 and H2) and two inbred-derived haploid lines (male Germplasm B and female Germplasm A) were tested in this experiment. Seven days after planting, several dozen seedlings from each group were removed from the soil and subjected to a bulk colchicine-based chromosome doubling treatment as described above. After the chromosome doubling treatment, seedlings were transplanted to soil and tended in a greenhouse at standard maize growing conditions. When the seedlings had reached approximately the V7 or V8 stage (approximately 29 days after doubling under the growing conditions used), the seedlings were subjected to co-dominant ear induction treatment comprising 60 mL of 2.5% PBZ added to the soil surrounding the base of each stem.
# The seedlings were then tended in standard greenhouse maize growing conditions until they flowered, at which time each plant that produced pollen was self-pollinated and then left undisturbed to await fertilization and kernel production. After approximately 2-3 weeks, ears were harvested and the kernels that formed on them (DH1) were counted to determine doubling efficiencies.
# Doubling efficiencies (DE) were calculated under the different constraints described in the previous example to generate values for DE04, DE20, DE30, and DE50 for each of the four genotypes. Furthermore, the above doubling efficiencies were calculated once by considering only the kernels that formed on the primary ear of each plant (Ear1), once by considering only the kernels that formed on the primary and secondary ear of each plant (Ear2), once by considering only the kernels that formed on the primary, secondary, and tertiary ear of each plant (Ear3), and finally by considering all the kernels that formed on all the ears of each plant (Earall).
# haploid mother plant = assay: Tiller induction in doubled haploid maize (Example 7)
# Method: A haploid mother plant will be subjected to doubling treatment and thereafter planted in a pot, the soil surrounding the roots drenched with 100 mL of 2.5% of paclobutrazol, and then tended standard maize greenhouse growing conditions for several days. […] One of the resulting daughter tiller plants can be separated from the mother plant, transplanted into a separate pot, and grown via standard greenhouse management procedures to eventually recover a daughter plant with normal haploid morphology.
# [3] = pedigree A, 3HV: 14DAP, 4 mg/plant, 2% 50 mL
# [4] = pedigree A, 3LV: 14DAP, 4 mg/plant, 6.25% 16 mL
# [5] = pedigree A, 8HV: 28DAP, 8 mg/plant, 2% 100 mL
# [6] = pedigree A, 8LV: 28DAP, 8 mg/plant, 13% 16 mL
# [7] = pedigree B, 3HV: 14DAP, 6 mg/plant, 3% 50 mL
# [8] = pedigree B, 3LV: 14DAP, 6 mg/plant, 9.38% 16 mL
# [9] = pedigree B, 8HV: 28DAP, 16 mg/plant, 4% 100 mL
# [10] = pedigree B, 8LV: 28DAP, 16 mg/plant, 25% 16 mL
# [11] = pedigree C, 3LV: 14DAP, 6 mg/plant, 9.38% 16 mL
# [12] = pedigree C, 8HV: 28DAP, 16 mg/plant, 4% 100 mL
# [13] = pedigree C, 8LV: 28DAP, 16 mg/plant, 25% 16 mL
# [14] = pedigree D, 3HV: 14DAP, 6 mg/plant, 3% 50 mL
# [15] = pedigree D, 3LV: 14DAP, 6 mg/plant, 9.38% 16 mL
# [16] = pedigree D, 8HV: 28DAP, 16 mg/plant, 4% 100 mL
# [17] = pedigree D, 8LV: 28DAP, 16 mg/plant, 25% 16 mL
# [18] = pedigree E, 3HV: 14DAP, 6 mg/plant, 3% 50 mL
# [19] = pedigree E, 3LV: 14DAP, 6 mg/plant, 9.38% 16 mL
# [20] = pedigree E, 8HV: 28DAP, 16 mg/plant, 4% 100 mL
# [21] = pedigree E, 8LV: 28DAP, 16 mg/plant, 25% 16 mL
# [22] = pedigree F, 3HV: 14DAP, 6 mg/plant, 3% 50 mL
# [23] = pedigree F, 3LV: 14DAP, 6 mg/plant, 9.38% 16 mL
# [24] = pedigree F, 8HV: 28DAP, 16 mg/plant, 4% 100 mL
# [25] = pedigree F, 8LV: 28DAP, 16 mg/plant, 25% 16 mL
# [26] = pedigree G, 3HV: 14DAP, 6 mg/plant, 3% 50 mL
# [27] = pedigree G, 3LV: 14DAP, 6 mg/plant, 9.38% 16 mL
# [28] = pedigree G, 8HV: 28DAP, 16 mg/plant, 4% 100 mL
# [29] = pedigree G, 8LV: 28DAP, 16 mg/plant, 25% 16 mL
# [30] = pedigree H, 3HV: 14DAP, 6 mg/plant, 3% 50 mL
# [31] = pedigree H, 3LV: 14DAP, 6 mg/plant, 9.38% 16 mL
# [32] = pedigree H, 8HV: 28DAP, 16 mg/plant, 4% 100 mL
# [33] = pedigree H, 8LV: 28DAP, 16 mg/plant, 25% 16 mL
# [34] = pedigree I, 3HV: 14DAP, 10 mg/plant, 5% 50 mL
# [35] = pedigree I, 3LV: 14DAP, 10 mg/plant, 15.63% 16 mL
# [36] = pedigree I, 8HV: 28DAP, 32 mg/plant, 8% 100 mL
# [37] = pedigree I, 8LV: 28DAP, 32 mg/plant, 50% 16 mL
# [38] = pedigree J, 3HV: 14DAP, 10 mg/plant, 5% 50 mL
# [39] = pedigree J, 3LV: 14DAP, 10 mg/plant, 15.63% 16 mL
# [40] = pedigree J, 8HV: 28DAP, 32 mg/plant, 8% 100 mL
# [41] = pedigree J, 8LV: 28DAP, 32 mg/plant, 50% 16 mL
# [42] = pedigree K, 3HV: 14DAP, 6 mg/plant, 3% 50 mL
# [43] = pedigree K, 8HV: 28DAP, 16 mg/plant, 4% 100 mL
# [44] = pedigree K, 8LV: 28DAP, 16 mg/plant, 25% 16 mL
# [45] = pedigree K, K3LV: 14DAP, 6 mg/plant, 9.38% 16 mL
smiles,measurement,setting,value
"CC(C)(C)[C@@H](O)[C@@H](Cc1ccc(Cl)cc1)n1cncn1 (relative stereo) [PBZ, (±)-(R*, R*)-beta-((4-chlorophenyl)methyl)-alpha-(1,1,-dimethylethyl)-1H-1,2,4,-triazole-1-ethanol]",kernel number per plant,"[1]; diverse germplasm treated at V3 (14DAP) or V8 (28DAP), FIG. 11",average increase in kernel number per plant
same,"decrease in height, on average","[1]; every germplasm tested, FIG. 10",30-50%
same,Avg Kernels from Main Stem,[1]; [3],330.50
same,Avg Total Kernels Per Plant,[1]; [3],351.00
same,Avg Kernels from Main Stem,[1]; [4],352.25
same,Avg Total Kernels Per Plant,[1]; [4],515.75
same,Avg Kernels from Main Stem,[1]; [5],337.00
same,Avg Total Kernels Per Plant,[1]; [5],345.75
same,Avg Kernels from Main Stem,[1]; [6],366.50
same,Avg Total Kernels Per Plant,[1]; [6],413.00
same,Avg Kernels from Main Stem,[1]; [7],204.00
same,Avg Total Kernels Per Plant,[1]; [7],215.50
same,Avg Kernels from Main Stem,[1]; [8],260.25
same,Avg Total Kernels Per Plant,[1]; [8],291.25
same,Avg Kernels from Main Stem,[1]; [9],567.00
same,Avg Total Kernels Per Plant,[1]; [9],567.25
same,Avg Kernels from Main Stem,[1]; [10],427.00
same,Avg Total Kernels Per Plant,[1]; [10],432.75
same,Avg Kernels from Main Stem,[1]; [11],291.50
same,Avg Total Kernels Per Plant,[1]; [11],611.25
same,Avg Kernels from Main Stem,[1]; [12],148.00
same,Avg Total Kernels Per Plant,[1]; [12],255.25
same,Avg Kernels from Main Stem,[1]; [13],325.75
same,Avg Total Kernels Per Plant,[1]; [13],513.25
same,Avg Kernels from Main Stem,[1]; [14],616.75
same,Avg Total Kernels Per Plant,[1]; [14],766.25
same,Avg Kernels from Main Stem,[1]; [15],631.25
same,Avg Total Kernels Per Plant,[1]; [15],839.25
same,Avg Kernels from Main Stem,[1]; [16],581.75
same,Avg Total Kernels Per Plant,[1]; [16],646.75
same,Avg Kernels from Main Stem,[1]; [17],727.75
same,Avg Total Kernels Per Plant,[1]; [17],745.50
same,Avg Kernels from Main Stem,[1]; [18],334.50
same,Avg Total Kernels Per Plant,[1]; [18],405.25
same,Avg Kernels from Main Stem,[1]; [19],291.25
same,Avg Total Kernels Per Plant,[1]; [19],422.50
same,Avg Kernels from Main Stem,[1]; [20],532.50
same,Avg Total Kernels Per Plant,[1]; [20],678.25
same,Avg Kernels from Main Stem,[1]; [21],583.25
same,Avg Total Kernels Per Plant,[1]; [21],772.75
same,Avg Kernels from Main Stem,[1]; [22],414.75
same,Avg Total Kernels Per Plant,[1]; [22],1078.75
same,Avg Kernels from Main Stem,[1]; [23],392.00
same,Avg Total Kernels Per Plant,[1]; [23],777.75
same,Avg Kernels from Main Stem,[1]; [24],301.00
same,Avg Total Kernels Per Plant,[1]; [24],442.25
same,Avg Kernels from Main Stem,[1]; [25],461.00
same,Avg Total Kernels Per Plant,[1]; [25],661.00
same,Avg Kernels from Main Stem,[1]; [26],381.50
same,Avg Total Kernels Per Plant,[1]; [26],905.50
same,Avg Kernels from Main Stem,[1]; [27],485.50
same,Avg Total Kernels Per Plant,[1]; [27],1033.50
same,Avg Kernels from Main Stem,[1]; [28],284.50
same,Avg Total Kernels Per Plant,[1]; [28],567.00
same,Avg Kernels from Main Stem,[1]; [29],542.75
same,Avg Total Kernels Per Plant,[1]; [29],728.25
same,Avg Kernels from Main Stem,[1]; [30],77.50
same,Avg Total Kernels Per Plant,[1]; [30],80.00
same,Avg Kernels from Main Stem,[1]; [31],73.25
same,Avg Total Kernels Per Plant,[1]; [31],83.00
same,Avg Kernels from Main Stem,[1]; [32],388.50
same,Avg Total Kernels Per Plant,[1]; [32],520.00
same,Avg Kernels from Main Stem,[1]; [33],439.75
same,Avg Total Kernels Per Plant,[1]; [33],564.75
same,Avg Kernels from Main Stem,[1]; [34],172.00
same,Avg Total Kernels Per Plant,[1]; [34],218.75
same,Avg Kernels from Main Stem,[1]; [35],175.00
same,Avg Total Kernels Per Plant,[1]; [35],191.25
same,Avg Kernels from Main Stem,[1]; [36],508.75
same,Avg Total Kernels Per Plant,[1]; [36],550.50
same,Avg Kernels from Main Stem,[1]; [37],448.25
same,Avg Total Kernels Per Plant,[1]; [37],448.25
same,Avg Kernels from Main Stem,[1]; [38],587.00
same,Avg Total Kernels Per Plant,[1]; [38],1005.75
same,Avg Kernels from Main Stem,[1]; [39],602.75
same,Avg Total Kernels Per Plant,[1]; [39],953.25
same,Avg Kernels from Main Stem,[1]; [40],361.50
same,Avg Total Kernels Per Plant,[1]; [40],398.75
same,Avg Kernels from Main Stem,[1]; [41],280.50
same,Avg Total Kernels Per Plant,[1]; [41],298.75
same,Avg Kernels from Main Stem,[1]; [42],317.75
same,Avg Total Kernels Per Plant,[1]; [42],365.00
same,Avg Kernels from Main Stem,[1]; [43],446.75
same,Avg Total Kernels Per Plant,[1]; [43],487.00
same,Avg Kernels from Main Stem,[1]; [44],495.00
same,Avg Total Kernels Per Plant,[1]; [44],539.75
same,Avg Kernels from Main Stem,[1]; [45],418.75
same,Avg Total Kernels Per Plant,[1]; [45],437.75
same,DE04,"[2]; Ear1, Control A",72.9
same,DE20,"[2]; Ear1, Control A",60.7
same,DE30,"[2]; Ear1, Control A",48.6
same,DE50,"[2]; Ear1, Control A",48.6
same,DE04,"[2]; Ear1, Control B",64.8
same,DE20,"[2]; Ear1, Control B",44.5
same,DE30,"[2]; Ear1, Control B",40.5
same,DE50,"[2]; Ear1, Control B",32.4
same,DE04,"[2]; Ear1, Germplasm A",64.6
same,DE20,"[2]; Ear1, Germplasm A",37.4
same,DE30,"[2]; Ear1, Germplasm A",30.6
same,DE50,"[2]; Ear1, Germplasm A",23.8
same,DE04,"[2]; Ear1, Germplasm B",56.7
same,DE20,"[2]; Ear1, Germplasm B",40.5
same,DE30,"[2]; Ear1, Germplasm B",40.5
same,DE50,"[2]; Ear1, Germplasm B",40.5
same,DE04,"[2]; Earall, Control A",81
same,DE20,"[2]; Earall, Control A",76.9
same,DE30,"[2]; Earall, Control A",76.9
same,DE50,"[2]; Earall, Control A",64.8
same,DE04,"[2]; Earall, Control B",68.8
same,DE20,"[2]; Earall, Control B",56.7
same,DE30,"[2]; Earall, Control B",56.7
same,DE50,"[2]; Earall, Control B",44.5
same,DE04,"[2]; Earall, Germplasm A",81.6
same,DE20,"[2]; Earall, Germplasm A",71.4
same,DE30,"[2]; Earall, Germplasm A",71.4
same,DE50,"[2]; Earall, Germplasm A",64.6
same,DE04,"[2]; Earall, Germplasm B",68.8
same,DE20,"[2]; Earall, Germplasm B",48.6
same,DE30,"[2]; Earall, Germplasm B",44.5
same,DE50,"[2]; Earall, Germplasm B",44.5
same,DH1 seeds yielded by transplanted daughter tiller plant when selfed,haploid mother plant; 100 mL of 2.5% paclobutrazol,several dozen
same,effect on mother plant,haploid mother plant; 100 mL of 2.5% paclobutrazol soil drench after doubling treatment,shortened internodes and increased tiller production
